TGI and GI50 data for 15 compounds are collected here from PubChem BioAssay (NCI).

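Dose response: 5 concentrations. Exposure: 48 h. Format: 96-well plates. Endpoint: linear interpolation; highest concentration if not reached. GI50 is the concentration that inhibits growth by half. TGI denotes the concentration required for complete inhibition of growth.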

Some test systems named below: SN12C renal; UACC-62 melanoma; UO-31 renal; UACC-257 melanoma; SW-620 colon; SK-MEL-2 melanoma; SF-268 CNS; CAKI-1 renal; NCI-H226 lung.
Holding throughout (assay): NCI-60 cell line screen, 48 h

Consider `Cc1nc(C(N)=O)c(N)n1CCN1CCN(C(=O)CCCCCCCCCCNC2N=CNc3nc[nH]c32)CC1` (stereo unspecified), for which the TGI was > 100 µM in the assay on SN12C renal; > 100 µM in the assay on UACC-62 melanoma; > 100 µM in the assay with UO-31 renal; 45.7 µM with UACC-257 melanoma; > 100 µM in the assay on SW-620 colon; 44.5 µM in the assay on SK-MEL-2 melanoma. The TGI in the assay on SF-268 CNS was > 100 µM.

Take `CN1N=CSC12C(=O)N(c1ccccc1)C(=O)N2c1ccccc1` (stereo unspecified): the TGI in the assay on SN12C renal, with UACC-62 melanoma, in the assay on UO-31 renal, in the assay with UACC-257 melanoma, with SW-620 colon and with CAKI-1 renal was > 100 µM throughout. In addition, the TGI with SK-MEL-2 melanoma and in the assay on SF-268 CNS was > 100 µM in each case.

`O=C1C2C3C=C4c5ccccc5N(c5ccccc5)C4(C2C(=O)N1c1ccccc1)C1C(=O)N(c2ccccc2)C(=O)C31` (stereo unspecified): the TGI in the assay on SN12C renal, in the assay with UO-31 renal, with UACC-257 melanoma, with SW-620 colon, with CAKI-1 renal and in the assay on SK-MEL-2 melanoma was > 100 µM each time. Moreover, the TGI in the assay on SF-268 CNS was > 100 µM.

As to `CN(C(=O)/C=C/c1ccccc1)C1C2CN3CCC(O2)C13` (stereo unspecified), the TGI in the assay with NCI-H226 lung, in the assay with SN12C renal, in the assay with UACC-62 melanoma, with UO-31 renal, with UACC-257 melanoma and with SW-620 colon was > 100 µM in each case. The TGI in the assay with CAKI-1 renal, with SK-MEL-2 melanoma and with SF-268 CNS was > 100 µM each time.

On to `O=C1C[C@H]2CCCN2[C@@H](c2ccccc2)C1`, for which the TGI in the assay with NCI-H226 lung, with SN12C renal, with UACC-62 melanoma, in the assay on UO-31 renal, with UACC-257 melanoma and with SW-620 colon was > 100 µM in each case. Further, the TGI with CAKI-1 renal, with SK-MEL-2 melanoma and in the assay on SF-268 CNS was > 100 µM in each case.

With `CCc1cccc(C)c1NS(=O)(=O)c1ccccc1`, the TGI in the assay on NCI-H226 lung, in the assay on UACC-62 melanoma, in the assay on UO-31 renal, in the assay with UACC-257 melanoma, in the assay with SW-620 colon and with CAKI-1 renal was > 100 µM in each case. The TGI in the assay with SK-MEL-2 melanoma is > 100 µM.

`O=c1cc(-c2cccs2)[nH]c2cc3c(cc12)OCO3`: the TGI in the assay on NCI-H226 lung is > 39.4 µM; in the assay on SN12C renal it was > 100 µM; in the assay with UACC-62 melanoma it was > 25 µM; with UO-31 renal, > 100 µM; in the assay on UACC-257 melanoma, > 100 µM; with SW-620 colon it was > 100 µM. Also, the TGI in the assay on SK-MEL-2 melanoma is > 48 µM; in the assay with SF-268 CNS, > 100 µM.

Regarding `O=c1ncccn1[C@@H]1O[C@H](CO)[C@H](O)C1O` (stereo partly specified), the TGI in the assay with NCI-H226 lung, with SN12C renal, in the assay with UACC-62 melanoma, in the assay on UO-31 renal, with UACC-257 melanoma and with SW-620 colon was > 100 µM throughout. The TGI with CAKI-1 renal, in the assay on SK-MEL-2 melanoma and in the assay on SF-268 CNS was > 100 µM throughout.

As to `Nc1ncnc2c1ncn2C1OC(CSCC(F)(F)F)C(O)C1O` (stereo unspecified), the TGI with NCI-H226 lung, with SN12C renal, with UACC-62 melanoma, in the assay on UO-31 renal, in the assay with UACC-257 melanoma and with SW-620 colon was > 100 µM throughout. Also, the TGI in the assay on CAKI-1 renal, with SK-MEL-2 melanoma and in the assay on SF-268 CNS was > 100 µM in each case.

For `CCSCCCSCCSCC`, the TGI with SN12C renal, with UACC-62 melanoma, in the assay on UO-31 renal, with UACC-257 melanoma, in the assay on SW-620 colon and with SF-268 CNS was > 100 µM each time.

Regarding `c1cc[c]([Sn][c]2ccccc2)cc1`, the GI50 with NCI-H226 lung was 21.8 µM; with SN12C renal, 20 µM; in the assay with UACC-62 melanoma it was 21 µM; in the assay on UO-31 renal, 19.4 µM; in the assay with UACC-257 melanoma it was 29.6 µM; in the assay with SW-620 colon, 21.6 µM. In addition, the results for the GI50 in the assay with CAKI-1 renal, in the assay with SK-MEL-2 melanoma and in the assay with SF-268 CNS were 24 µM, 15.9 µM and 14.5 µM, respectively. Also, the TGI with NCI-H226 lung was 54.8 µM; in the assay on SN12C renal it was 42.1 µM; in the assay with UACC-62 melanoma it was 47 µM; with UO-31 renal, 38.5 µM; in the assay on UACC-257 melanoma it was > 72.9 µM; in the assay with SW-620 colon, 45 µM. Also, the TGI was > 92.3 µM in the assay on CAKI-1 renal, 37.7 µM with SK-MEL-2 melanoma and 25 µM in the assay on SF-268 CNS.

Take `Cc1cc2c(C)nn(Cc3ccccc3)c2c(C(=O)O)c1C`: the TGI in the assay with NCI-H226 lung, in the assay on SN12C renal, in the assay with UACC-62 melanoma, in the assay with UO-31 renal, with UACC-257 melanoma and with SW-620 colon was > 100 µM in each case. Besides, the TGI in the assay on SK-MEL-2 melanoma and in the assay on SF-268 CNS was > 100 µM each time.

As for `CC(=O)OCc1c2ccccc2c(C)c2c1cc(F)c1ccccc12`, the TGI with NCI-H226 lung is > 100 µM; with SN12C renal, 33.8 µM; with UACC-62 melanoma, 43.6 µM; in the assay on UO-31 renal it was > 100 µM; in the assay with UACC-257 melanoma it was > 100 µM; with SW-620 colon, 67.3 µM. Also, the TGI in the assay with CAKI-1 renal amounted to 98 µM; in the assay with SK-MEL-2 melanoma, 35.2 µM; with SF-268 CNS, 85.3 µM.

For `O=C(O)CCNS(=O)(=O)c1ccc(NC(=O)c2ccccc2)cc1`, the TGI in the assay on SN12C renal, in the assay with UACC-62 melanoma, in the assay on UO-31 renal, with UACC-257 melanoma, in the assay on SW-620 colon and with CAKI-1 renal was > 100 µM each time. Also, the TGI in the assay on SK-MEL-2 melanoma and in the assay on SF-268 CNS was > 100 µM in each case.

Take `Cn1ccnc1CCc1c(Cl)cccc1Cl`: the TGI in the assay with NCI-H226 lung, in the assay with SN12C renal, in the assay with UACC-62 melanoma, in the assay with UO-31 renal, in the assay on UACC-257 melanoma and in the assay on SW-620 colon was > 100 µM in each case. Besides, the TGI in the assay with CAKI-1 renal, in the assay with SK-MEL-2 melanoma and in the assay on SF-268 CNS was > 100 µM each time.
